This is an account of results in PMC6105524 (Lipids, 2018).

Read-outs that look alike come from different tables or passages of the source.

For series [1] the following is noted: compartmental modeling, humans; ref Pawlosky et al. 2001; cited from earlier work.
Series [2] is classed as in vivo, human. The note with it: for Time at Smax: 8 h iv infusion of d5-ALA-albumin 0.78 mg/kg BW/hr; for F (turnover of esterified n-3 HUFA in plasma): Jsyn / amount in plasma total lipids; for Jsyn (whole-body synthesis-secretion rate): both subjects.
Series [3] can be described thus: Plasma unlabeled fatty acid concentrations. The class given is in vivo, human. As to conditions: unlabeled, mean of 17 time points, low linoleate diet.
The conditions of series [4]: ref Domenichiello et al. 2014, Domenichiello et al. 2016, Metherel et al. 2018, cited from earlier work.
[5] abbreviates: subject S01, k1 x unesterified ALA 2.52 nmol/mL.
Where [6] appears, read: subject S02, k1 x unesterified ALA 4.74 nmol/mL.

On to `CC/C=C\C/C=C\C/C=C\C/C=C\C/C=C\CCCC(=O)O` [EPA, eicosapentaenoic acid], for which the “Rate of mass flow from immediate precursor” value (“Rate of mass flow” for short) in series [1] was 0.021 µmol/day. Besides, in series [2] (subject S01), the “Smax (maximal first derivative of plasma total amount time-course of newly synthesized d5-n-3 HUFA)” value stood at 3.23 nmol/min, the “k1 (synthesis-secretion coefficient)” value was 1.91 mL/min, the “Time at Smax” value is given as 190 min and the “F (turnover of esterified n-3 HUFA in plasma)” value turned out to be 7.7e-05 min⁻¹. For the same molecule, the “Jsyn (whole body synthesis-secretion rate from circulating unesterified 18:3n-3)” value in series [2] (setting [5]) is 4.81 nmol/min. Moreover, in series [2] (subject S02), the “Smax (maximal first derivative of plasma total amount time-course of newly synthesized d5-n-3 HUFA)” value came to 2.29 nmol/min, the “k1 (synthesis-secretion coefficient)” value came to 1.29 mL/min, the “Time at Smax” value amounted to 215 min and the “F (turnover of esterified n-3 HUFA in plasma)” value amounted to 0.00015 min⁻¹. Also, in series [2] (setting [6]), the “Jsyn (whole body synthesis-secretion rate from circulating unesterified 18:3n-3)” value is reported as 6.09 nmol/min.
For `CC/C=C\C/C=C\C/C=C\C/C=C\C/C=C\CCCCCCCC(=O)O` [TPAn-3, tetracosapentaenoic acid], the “Fatty acid concentration in plasma total lipids (mean)” value (“Fatty acid concentration” below) in series [3] (subject S01) is 2.1 nmol/mL. Besides, the “Fatty acid concentration” value in series [3] (subject S02) worked out at 2.0 nmol/mL. In addition, the “Jsyn (whole-body synthesis-secretion rate)” value in series [2] is 0.5 to 0.6 nmol/min. In series [2] (subject S01), the “Smax (maximal first derivative of plasma total amount time-course of newly synthesized d5-n-3 HUFA)” value is recorded as 0.39 nmol/min, the “k1 (synthesis-secretion coefficient)” value was determined as 0.23 mL/min, the “Time at Smax” value is 98 min and the “F (turnover of esterified n-3 HUFA in plasma)” value worked out at 7.4e-05 min⁻¹. The “Jsyn (whole body synthesis-secretion rate from circulating unesterified 18:3n-3)” value in series [2] (setting [5]) is 0.58 nmol/min. In addition, in series [2] (subject S02), the “Smax (maximal first derivative of plasma total amount time-course of newly synthesized d5-n-3 HUFA)” value is listed as 0.22 nmol/min, the “k1 (synthesis-secretion coefficient)” value amounted to 0.12 mL/min, the “Time at Smax” value is 150 min and the “F (turnover of esterified n-3 HUFA in plasma)” value came out at 0.0001 min⁻¹. Moreover, the “Jsyn (whole body synthesis-secretion rate from circulating unesterified 18:3n-3)” value in series [2] (setting [6]) is 0.58 nmol/min.
Take `CCCCC/C=C\C/C=C\CCCCCCCCCC(=O)O` [20:2n-6]: the figures for the “Fatty acid concentration” value in series [3] (subject S01) and in series [3] (subject S02) were 8.6 nmol/mL and 13.6 nmol/mL, respectively.
The matching figures for `CCCCCCCCCCCCCC(=O)O` [14:0]: 43.9 nmol/mL and 36.8 nmol/mL.
Turning to tetracosahexaenoic acid [THA], in series [3] (subject S01), the “Fatty acid concentration” value is on record as 2.8 nmol/mL. Also, in series [3] (subject S02), the “Fatty acid concentration” value amounted to 1.5 nmol/mL. The “Jsyn (whole-body synthesis-secretion rate)” value in series [2] lay within 0.5 to 0.6 nmol/min. Further, in series [2] (subject S01), the “Smax (maximal first derivative of plasma total amount time-course of newly synthesized d5-n-3 HUFA)” value worked out at 0.41 nmol/min, the “k1 (synthesis-secretion coefficient)” value amounted to 0.24 mL/min, the “Time at Smax” value is recorded as 102 min and the “F (turnover of esterified n-3 HUFA in plasma)” value was 5.8e-05 min⁻¹. Moreover, the “Jsyn (whole body synthesis-secretion rate from circulating unesterified 18:3n-3)” value in series [2] (setting [5]) turned out to be 0.61 nmol/min. Besides, in series [2] (subject S02), the “Smax (maximal first derivative of plasma total amount time-course of newly synthesized d5-n-3 HUFA)” value was found to be 0.17 nmol/min, the “k1 (synthesis-secretion coefficient)” value is listed as 0.10 mL/min, the “Time at Smax” value came out at 125 min and the “F (turnover of esterified n-3 HUFA in plasma)” value was 0.0001 min⁻¹. Also, the “Jsyn (whole body synthesis-secretion rate from circulating unesterified 18:3n-3)” value in series [2] (setting [6]) turned out to be 0.46 nmol/min.
On to `CC/C=C\C/C=C\C/C=C\C/C=C\C/C=C\C/C=C\CCC(=O)O` [DHA, Docosahexaenoic acid], for which, in series [1], the “Rate of mass flow” value is 0.464 µmol/day. Moreover, the figures for the “Smax (maximal first derivative of plasma total amount time-course of newly synthesized d5-n-3 HUFA)” value in series [2] (subject S01) and in series [2] (subject S02) were 0.67 nmol/min and 0.21 nmol/min, respectively. The “k1 (synthesis-secretion coefficient)” value is given as 0.39 mL/min in series [2] (subject S01) and 0.12 mL/min in series [2] (subject S02). In addition, the “Time at Smax” value amounted to 109 min in series [2] (subject S01) and 125 min in series [2] (subject S02). Besides, the “F (turnover of esterified n-3 HUFA in plasma)” value in series [2] (subject S01) worked out at 2.6e-06 min⁻¹; in series [2] (subject S02), 3.7e-06 min⁻¹. In addition, the figures for the “Jsyn (whole body synthesis-secretion rate from circulating unesterified 18:3n-3)” value in series [2] (setting [5]) and in series [2] (setting [6]) were 0.99 nmol/min and 0.56 nmol/min, respectively. Also, the “Whole body synthesis-secretion rate of DHA from circulating ALA” value in series [4] (rats consuming a high ALA diet) is 1.5 µmol/day; in series [4] (rats consuming a low ALA containing diet) it was 0.045 µmol/day.
Take `CCCCCC/C=C\CCCCCCCC(=O)O` [16:1n-7]: the “Fatty acid concentration” value in series [3] (subject S01) is 153 nmol/mL; in series [3] (subject S02) it was 91.9 nmol/mL.
For `CC/C=C\C/C=C\C/C=C\C/C=C\C/C=C\CCCCCC(=O)O` [DPAn-3, docosapentaenoic acid], in series [1], the “Rate of mass flow” value was 0.075 µmol/day. In addition, in series [2] (subject S01), the “Smax (maximal first derivative of plasma total amount time-course of newly synthesized d5-n-3 HUFA)” value worked out at 2.43 nmol/min, the “k1 (synthesis-secretion coefficient)” value amounted to 1.44 mL/min, the “Time at Smax” value came out at 94 min and the “F (turnover of esterified n-3 HUFA in plasma)” value came to 8.8e-05 min⁻¹. Also, the “Jsyn (whole body synthesis-secretion rate from circulating unesterified 18:3n-3)” value in series [2] (setting [5]) worked out at 3.62 nmol/min. In series [2] (subject S02), the “Smax (maximal first derivative of plasma total amount time-course of newly synthesized d5-n-3 HUFA)” value was found to be 4.14 nmol/min, the “k1 (synthesis-secretion coefficient)” value is listed as 2.32 mL/min, the “Time at Smax” value was determined as 156 min and the “F (turnover of esterified n-3 HUFA in plasma)” value was 0.00019 min⁻¹. The “Jsyn (whole body synthesis-secretion rate from circulating unesterified 18:3n-3)” value in series [2] (setting [6]) worked out at 11.0 nmol/min.
Consider `CCCCC/C=C\C/C=C\C/C=C\CCCCC(=O)O` [18:3n-6], for which the “Fatty acid concentration” value in series [3] (subject S01) was 15.3 nmol/mL; in series [3] (subject S02) it was 12.3 nmol/mL.
The like results for `CCCCCCCC/C=C\CCCCCCCCCCCCCC(=O)O` [24:1n-9] were, in that order, 48.1 nmol/mL and 21.8 nmol/mL.
The matching figures for `CCCCCCCCCCCCCCCCCC(=O)O` [18:0]: 367 nmol/mL and 374 nmol/mL.
